From patent publication US20240270751A1, “Pyrazolopyridinone Compounds” (BeiGene Ltd., priority 2021, published 2024)
Like-named read-outs stand apart in the source and are kept apart here.

Experiments:
[1] = target: DGKζ (Homo sapiens (Human), UniProt Q13574); assay: Biochemical DGK IC50 assay, DGKζ ADP-Glo assay; settings: 0.5 nM enzyme, 140 μM ATP, 80 μM DAG
Outline: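 ADP formation measured by ADP-Glo luminescence, with test compounds at final 1.55–10000 nM or 23.3–150000 nM. Enzyme: purified full-length human DGKζ from Sf9 insect cells; substrate: DAG/PS micelles in 25 mM HEPES pH 7.0, 0.5 mM EDTA, octyl glucoside.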

[2] = target: DGKα (Homo sapiens (Human), UniProt P23743); assay: Biochemical DGK IC50 assay, DGKα ADP-Glo assay; settings: 7.5 nM enzyme, 140 μM ATP, 80 μM DAG
Sequence of DGKα (P23743 whole entry): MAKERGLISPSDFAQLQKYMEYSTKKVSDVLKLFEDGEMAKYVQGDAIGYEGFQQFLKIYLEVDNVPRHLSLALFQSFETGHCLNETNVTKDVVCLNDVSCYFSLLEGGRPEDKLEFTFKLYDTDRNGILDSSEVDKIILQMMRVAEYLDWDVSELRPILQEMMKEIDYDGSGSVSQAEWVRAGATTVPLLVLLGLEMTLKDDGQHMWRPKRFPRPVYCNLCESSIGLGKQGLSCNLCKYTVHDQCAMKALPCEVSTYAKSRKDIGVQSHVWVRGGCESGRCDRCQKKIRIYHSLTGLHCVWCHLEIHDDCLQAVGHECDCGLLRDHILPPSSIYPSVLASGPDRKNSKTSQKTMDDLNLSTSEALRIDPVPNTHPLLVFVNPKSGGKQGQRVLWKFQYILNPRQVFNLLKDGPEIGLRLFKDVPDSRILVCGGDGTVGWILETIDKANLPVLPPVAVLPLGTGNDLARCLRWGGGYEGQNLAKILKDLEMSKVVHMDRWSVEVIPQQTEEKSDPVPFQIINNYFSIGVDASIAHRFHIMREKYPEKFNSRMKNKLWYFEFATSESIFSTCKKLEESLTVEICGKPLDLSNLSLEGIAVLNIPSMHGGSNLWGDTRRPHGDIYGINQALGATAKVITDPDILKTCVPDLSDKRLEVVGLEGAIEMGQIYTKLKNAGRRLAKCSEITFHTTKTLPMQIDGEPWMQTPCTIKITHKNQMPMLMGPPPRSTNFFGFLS
Outline: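 Compounds at final 1.55˜10000 nM or 23.3˜150000 nM were tested against full-length DGKα. Substrate was lipid micelles of DAG and PS resuspended in 25 mM HEPES pH 7.0 with 0.5 mM EDTA and 160 mM octyl β-D-glucopyranoside. ADP formed was detected by ADP-Glo.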

[3] = read-out: DGKζ ADP-Glo assay IC50

Sequence of DGKζ (Q13574 other isoform, or with tags, fused parts or gaps): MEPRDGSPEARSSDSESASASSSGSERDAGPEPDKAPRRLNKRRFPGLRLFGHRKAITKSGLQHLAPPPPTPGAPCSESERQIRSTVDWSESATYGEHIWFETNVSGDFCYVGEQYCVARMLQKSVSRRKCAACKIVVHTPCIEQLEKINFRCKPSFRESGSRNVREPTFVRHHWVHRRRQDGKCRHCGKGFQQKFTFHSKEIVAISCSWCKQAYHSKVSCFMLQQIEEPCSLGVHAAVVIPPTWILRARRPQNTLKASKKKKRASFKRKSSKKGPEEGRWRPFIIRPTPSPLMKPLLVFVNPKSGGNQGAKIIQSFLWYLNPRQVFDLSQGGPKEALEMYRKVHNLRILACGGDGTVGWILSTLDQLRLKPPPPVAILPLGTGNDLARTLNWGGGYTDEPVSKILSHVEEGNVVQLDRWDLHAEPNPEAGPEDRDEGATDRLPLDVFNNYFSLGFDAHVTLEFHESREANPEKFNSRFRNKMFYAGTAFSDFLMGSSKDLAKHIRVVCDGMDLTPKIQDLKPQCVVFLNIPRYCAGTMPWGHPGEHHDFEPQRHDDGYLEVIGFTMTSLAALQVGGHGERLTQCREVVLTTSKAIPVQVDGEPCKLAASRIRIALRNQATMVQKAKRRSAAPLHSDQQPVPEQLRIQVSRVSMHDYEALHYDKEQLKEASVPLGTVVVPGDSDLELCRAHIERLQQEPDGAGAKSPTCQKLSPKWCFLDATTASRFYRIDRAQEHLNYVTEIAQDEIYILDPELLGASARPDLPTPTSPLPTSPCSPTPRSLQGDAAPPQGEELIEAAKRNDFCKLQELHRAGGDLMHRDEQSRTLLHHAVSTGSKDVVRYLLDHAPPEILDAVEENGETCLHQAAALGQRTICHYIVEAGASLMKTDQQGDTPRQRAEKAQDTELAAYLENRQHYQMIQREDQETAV

SMILES	IC50 [1, 3] [nM]	IC50 [2] [µM]	IC50 ([1]; DGKζ ADP-Glo assay IC50(nM)) [nM]
CC(C1CCOCC1)N1C[C@H](C)N(c2cc(=O)n(C)c3cn(CC#N)nc23)C[C@H]1C (stereo partly shown) [Compound A242]	> 10000	> 10	–
C[C@@H]1CN(c2nc(=O)n(C)c3c(Cl)n(CC#N)nc23)[C@@H](C)CN1[C@H](C)c1ccc2nccnc2c1 [Compound A245, 2-(3-chloro-7-((2S,5R)-2,5-dimethyl-4-((R)-1-(quinoxalin-6-yl)ethyl)piperazin-1-yl)-4-methyl-5-oxo-4,5-dihydro-2H-pyrazolo[4,3-d]pyrimidin-2-yl)acetonitrile, or 2-(3-chloro-7-((2S,5R)-2,5-dimethyl-4-((S)-1-(quinoxalin-6-yl)ethyl)piperazin-1-yl)-4-methyl-5-oxo-4,5-dihydro-2H-pyrazolo[4,3-d]pyrimidin-2-yl)acetonitrile]	87	> 10	–
C[C@@H]1CN(c2cc(=O)n(C)c3cn(CC#N)nc23)[C@@H](C)CN1Cc1ccc(F)cc1C(F)(F)F [Compound A246]	1070	9.72	–
CC(c1cnc2c(c1)OCCO2)N1C[C@H](C)N(c2cc(=O)n(C)c3cn(CC#N)nc23)C[C@H]1C (stereo partly shown) [Compound A250]	3010	> 10	–
CC(c1ccc(Cl)cc1C(F)(F)F)N1C[C@H](C)N(c2cc(=O)n(C)c3cn(CC#N)nc23)C[C@H]1C (stereo partly shown) [Compound A251]	3270	> 10	–
CC(c1ccc(F)cc1C(F)F)N1C[C@H](C)N(c2cc(=O)n(C)c3cn(CC#N)nc23)C[C@H]1C (stereo partly shown) [Compound A252]	1370	> 10	–
[2H]C([2H])([2H])n1c(=O)cc(N2C[C@@H](C)N(C(C)c3ccc(F)cc3C(F)(F)F)C[C@@H]2C)c2nn(CC#N)cc21 (stereo partly drawn) [Compound A257, 2-(7-((2S,5R)-4-(1-(4-fluoro-2-(trifluoromethyl)phenyl)ethyl)-2,5-dimethylpiperazin-1-yl)-4-(methyl-d3)-5-oxo-4,5-dihydro-2H-pyrazolo[4,3-b]pyridin-2-yl)acetonitrile]	652	> 10	–
C[C@@H]1CN(c2cc(=O)n(C)c3c(F)nn(CC#N)c23)[C@@H](C)CN1[C@H](C)c1ccc2nccnc2c1 [Compound A258, 2-(7-((2S,5R)-2,5-dimethyl-4-((R)-1-(quinoxalin-6-yl)ethyl)piperazin-1-yl)-3-fluoro-4-methyl-5-oxo-4,5-dihydro-1H-pyrazolo[4,3-b]pyridin-1-yl)acetonitrile, or 2-(7-((2S,5R)-2,5-dimethyl-4-((S)-1-(quinoxalin-6-yl)ethyl)piperazin-1-yl)-3-fluoro-4-methyl-5-oxo-4,5-dihydro-1H-pyrazolo[4,3-b]pyridin-1-yl)acetonitrile]	> 10000	> 10	–
CC(c1ccc2nccnc2c1)N1C[C@H](C(F)F)N(c2cc(=O)n(C)c3cn(CC#N)nc23)C[C@H]1C (stereo partly drawn) [Compound A261, 2-(7-((2R,5R)-2-(difluoromethyl)-5-methyl-4-(1-(quinoxalin-6-yl)ethyl)piperazin-1-yl)-4-methyl-5-oxo-4,5-dihydro-2H-pyrazolo[4,3-b]pyridin-2-yl)acetonitrile]	2350	> 10	–
C[C@@H]1CN(c2cc(=O)n(C)c3c(Cl)n(CC#N)nc23)[C@@H](C)CN1[C@H](C)c1ccc2nccnc2c1 [Compound A263, 2-(3-chloro-7-((2S,5R)-2,5-dimethyl-4-((R)-1-(quinoxalin-6-yl)ethyl)piperazin-1-yl)-4-methyl-5-oxo-4,5-dihydro-2H-pyrazolo[4,3-b]pyridin-2-yl)acetonitrile, or 2-(3-chloro-7-((2S,5R)-2,5-dimethyl-4-((S)-1-(quinoxalin-6-yl)ethyl)piperazin-1-yl)-4-methyl-5-oxo-4,5-dihydro-2H-pyrazolo[4,3-b]pyridin-2-yl)acetonitrile]	85	41.8	–
CC[C@H]1CN(C(C)c2ccc(F)cc2C(F)(F)F)[C@H](CC)CN1c1cc(=O)[nH]c2cn(CC#N)nc12 (stereo partly drawn) [Compound A265, 2-(7-((2S,5R)-2,5-diethyl-4-(1-(4-fluoro-2-(trifluoromethyl)phenyl)ethyl)piperazin-1-yl)-5-oxo-4,5-dihydro-2H-pyrazolo[4,3-b]pyridin-2-yl)acetonitrile]	736	> 10	–
[2H]c1nc2ccc(C(C)N3C[C@H](C)N(c4cc(=O)n(C)c5cn(CC#N)nc45)C[C@H]3C)cc2nc1[2H] (stereo partly drawn) [Compound A268, 2-(7-((2S,5R)-2,5-dimethyl-4-(1-(quinoxalin-6-yl-2,3-d2)ethyl)piperazin-1-yl)-4-methyl-5-oxo-4,5-dihydro-2H-pyrazolo[4,3-b]pyridin-2-yl)acetonitrile]	–	16.3	133
Cc1cnc2ccc([C@@H](C)N3C[C@H](C)N(c4cc(=O)n(C)c5cn(CC#N)nc45)C[C@H]3C)cc2n1 [Compound A269c, 2-(7-((2S,5R)-2,5-dimethyl-4-((R)-1-(3-methylquinoxalin-6-yl)ethyl)piperazin-1-yl)-4-methyl-5-oxo-4,5-dihydro-2H-pyrazolo[4,3-b]pyridin-2-yl)acetonitrile]	> 10000	> 10	–
CC(c1ccc(F)cc1C1(O)COC1)N1C[C@H](C)N(c2cc(=O)n(C)c3cn(CC#N)nc23)C[C@H]1C (stereo partly drawn) [Compound A271, 2-(7-((2S,5R)-4-(1-(4-fluoro-2-(3-hydroxyoxetan-3-yl)phenyl)ethyl)-2,5-dimethylpiperazin-1-yl)-4-methyl-5-oxo-4,5-dihydro-2H-pyrazolo[4,3-b]pyridin-2-yl)acetonitrile]	> 10000	> 10	–
CC(c1c(Cl)cc(F)cc1Cl)N1C[C@H](C)N(c2cc(=O)n(C)c3cn(CC#N)nc23)C[C@H]1C (stereo partly shown) [Compound A272]	411	> 10	–
COc1c(C(C)N2C[C@H](C)N(c3cc(=O)n(C)c4cn(CC#N)nc34)C[C@H]2C)ccc(F)c1F (stereo partly shown) [Compound A273]	5550	> 10	–
COc1c(N2C[C@@H](C)N([C@@H](C)c3ccc4nccnc4c3)C[C@@H]2C)c2nn(CC#N)cc2n(C)c1=O [Compound A274, 2-(7-((2S,5R)-2,5-dimethyl-4-((S)-1-(quinoxalin-6-yl)ethyl)piperazin-1-yl)-6-methoxy-4-methyl-5-oxo-4,5-dihydro-2H-pyrazolo[4,3-b]pyridin-2-yl)acetonitrile]	> 10000	> 10	–

Now from value to molecule, other results behind:

IC50 [1, 3] [nM]	IC50 [2] [µM]	SMILES	IC50 ([1]; DGKζ ADP-Glo assay IC50(nM)) [nM]
283	> 10	CC(c1ccc(F)cc1OC(F)F)N1C[C@H](C)N(c2cc(=O)n(C)c3cn(CC#N)nc23)C[C@H]1C (stereo partly drawn) [Compound A247, 2-(7-((2S,5R)-4-(1-(2-(difluoromethoxy)-4-fluorophenyl)ethyl)-2,5-dimethylpiperazin-1-yl)-4-methyl-5-oxo-4,5-dihydro-2H-pyrazolo[4,3-b]pyridin-2-yl)acetonitrile]	–
307	> 10	CC(c1ccc(F)cc1C(C)(F)F)N1C[C@H](C)N(c2cc(=O)n(C)c3cn(CC#N)nc23)C[C@H]1C (stereo partly drawn) [Compound A254, 2-(7-((2S,5R)-4-(1-(2-(1,1-difluoroethyl)-4-fluorophenyl)ethyl)-2,5-dimethylpiperazin-1-yl)-4-methyl-5-oxo-4,5-dihydro-2H-pyrazolo[4,3-b]pyridin-2-yl)acetonitrile]	–
194	> 10	CCC(c1ccc2nccnc2c1)N1C[C@H](C)N(c2cc(=O)n(C)c3cn(CC#N)nc23)C[C@H]1C (stereo partly shown) [Compound A255]	–
315	> 10	CCC(c1ccc(F)cc1C(F)(F)F)N1C[C@H](C)N(c2cc(=O)n(C)c3cn(CC#N)nc23)C[C@H]1C (stereo partly shown) [Compound A256]	–
380	> 10	CC[C@@H]1CN(c2cc(=O)n(C)c3cn(CC#N)nc23)[C@@H]([C@@H](C)O)CN1C(C)c1ccc2nccnc2c1 (stereo partly drawn) [Compound A259, 2-(7-((2R,5R)-5-ethyl-2-((R)-1-hydroxyethyl)-4-(1-(quinoxalin-6-yl)ethyl)piperazin-1-yl)-4-methyl-5-oxo-4,5-dihydro-2H-pyrazolo[4,3-b]pyridin-2-yl)acetonitrile]	–
150	> 10	C[C@@H]1CN(c2cc(=O)n(C)c3cn(CC#N)nc23)[C@@H](C)CN1C(c1ccc2nccnc2c1)C(F)F (stereo partly drawn) [Compound A262, 2-(7-((2S,5R)-4-(2,2-difluoro-1-(quinoxalin-6-yl)ethyl)-2,5-dimethylpiperazin-1-yl)-4-methyl-5-oxo-4,5-dihydro-2H-pyrazolo[4,3-b]pyridin-2-yl)acetonitrile]	–
215	> 10	CC[C@@H]1CN(c2cc(=O)[nH]c3c(C)n(CC#N)nc23)[C@@H](C)CN1C(C)c1ccc2nccnc2c1 (stereo partly shown) [Compound A264]	–
35	> 10	Cc1cnc2ccc(C(C)N3C[C@H](C)N(c4cc(=O)n(C)c5cn(CC#N)nc45)C[C@H]3C)cc2n1 (stereo partly drawn) [Compound A269 (RII), 2-(7-((2S,5R)-2,5-dimethyl-4-(1-(3-methylquinoxalin-6-yl)ethyl)piperazin-1-yl)-4-methyl-5-oxo-4,5-dihydro-2H-pyrazolo[4,3-b]pyridin-2-yl)acetonitrile]	–
169	40.1	COc1cnc2ccc(C(C)N3C[C@H](C)N(c4cc(=O)n(C)c5cn(CC#N)nc45)C[C@H]3C)cc2n1 (stereo partly drawn) [Compound A270, 2-(7-((2S,5R)-4-(1-(3-methoxyquinoxalin-6-yl)ethyl)-2,5-dimethylpiperazin-1-yl)-4-methyl-5-oxo-4,5-dihydro-2H-pyrazolo[4,3-b]pyridin-2-yl)acetonitrile]	–
